Patent publication US20240307374A1, “FORMULATION OF FURIN INHIBITOR FOR INHALATION” (BP ASSET V, INC., priority 2021, published 2024)
Values after ≈ are worked out from the molar mass of the structure shown. “Also recorded” adds a separate entry of the source. Read-outs that look alike come from different tables or passages of the source.

Tests used:
Format in all cases: physicochemical
[1] = Grinding stability; conditions: ~30 mg ground manually in a mortar for about 5 minutes
[2] = In situ salt solubility test (citric acid, fumaric acid); conditions: for solubility: filtrate, read-out: Concentration (in situ salt solubility)
Excerpt: The sample was almost clear (little solid was observed) and filtered for a solubility test.

[3] = Complexation stability constant test: solubility in SBECD solutions; conditions: for solubility at 24 h: thermodynamic from solid
Description: Additional solid was added into the sample to generate suspension if clear solution was obtained. The suspension was equilibrated via stirring (1000 rpm) for 24 hours. The suspension was centrifuged to obtain precipitate and supernatants. Solubility and pH was determined for the supernatants after filtration, and XRPD was obtained for the isolated precipitate.

[4] = Solubility of freeform Type D with sugars
Description: The samples were sonicated for about 2 minutes, and the samples were almost clear (little solid was observed) and filtered for clear solution, pH of the solutions were 3.5. About 68.5 mg lactose and sucrose were added into the two solutions, respectively. The two samples were clear after adding sugar, and pH of the two samples remained 3.5. pH of the two solutions was adjusted to 5.1 by adding 1 M NaOH, and no solid precipitated out after pH adjustment.
The three solutions were stored under 5° C. for three days, and no solid precipitated out after cooling. The concentration and pH were tested for each sample.

[5] = Solid state stability; parameters: key to FC (form change): N: The form was not changed; conditions: for Purity: initial purity 99.62%
Description: Approximately 30 mg of each solid sample was added to an HPLC vial (sealed by Parafilm© and poked with several pinholes) and then stored at 25° C./60% RH, 40° C./75% RH and 60° C. for 28 days.
After 1/3/7/14/28 days storage, solids were taken out for HPLC and XRPD to evaluate chemical and physical stability, respectively.

[6] = Humidity induced experiments (solid-state stability of freeform Type D under different humidities); conditions: ~7%, ~22%, ~43%, ~58%, ~84% RH, RT, 6 weeks
Description: The 3-mL vial was then placed into a 20-mL vial with 4 mL of the corresponding saturated salt solution. The 20-mL vial was sealed with a cap and kept at RT for the water vapor to interact with the solid.

[7] = Solution stability in citrate buffers; conditions: 28 days
Description: The stability samples were stored under 5° C. and 25° C. for 28 days, respectively. After 28 days storage, the stability samples were taken out for HPLC test and pH test.
Waters H-class UPLC (ultra-performance liquid chromatography) was used for purity, solubility, assay and stability test. Detailed method is shown in Table 9-22, Table 9-23 and Table 9-24.

[8] = Equilibrium solubility of freeform Type D in pH=4.0 and 5.0 citrate/phosphate buffers; conditions: for Form: XRPD of precipitate; for Form / solubility at 24 h / End pH (24 hours): citrate/phosphate buffer; for Form / solubility at 24 h / solid form after equilibrium (XRPD): 24 hours; for solubility at 24 h: aqueous buffer, thermodynamic from solid; for solid form after equilibrium (XRPD): RT
Description: The suspension was equilibrated via stirring (1000 rpm) for 24 hours. The suspension was centrifuged to obtain precipitate and supernatants. Solubility and pH were tested for the supernatants after filtration, and isolated precipitate was tested by XRPD.

[9] = 1.1 equiv. of citric acid in water
[10] = 1.1 equivalent of fumaric acid in water
[11] = 30 mmol freeform Type D + 30 mmol citric acid, initial pH 3.6
[12] = 50 mmol freeform Type D + 50 mmol citric acid + ~200 mmol lactose, initial pH 5.1
[13] = 50 mmol freeform Type D + 50 mmol citric acid + ~200 mmol sucrose, initial pH 5.1
[14] = ~1 mg/mL in 10 mM citrate buffer (pH 4.3), 5° C.
[15] = ~1 mg/mL in 10 mM citrate buffer (pH 4.3), 25° C.
[16] = ~40 mg/mL in 100 mM citrate buffer (pH 4.1), 5° C.
[17] = ~40 mg/mL in 100 mM citrate buffer (pH 4.1), 25° C.

Structure (SMILES): CC(=O)NCC1CCN(Cc2cc(Oc3ccc(N4CCN(CCC(=O)O)CC4)nc3)nc(-c3cc(Cl)cc(Cl)c3)c2)CC1 [Freeform Type A]
- crystallinity after grinding (XRPD) [1]: decreased after grinding

Structure (SMILES): CC(=O)NCC1CCN(Cc2cc(Oc3ccc(N4CCN(CCC(=O)O)CC4)nc3)nc(-c3cc(Cl)cc(Cl)c3)c2)CC1 [Freeform Type D]
- HPLC purity of filtrates [2, 9]: 99.9% Area %
- pH [2, 9]: 3.4
- HPLC purity of filtrates [2, 10]: 99.8% Area %
- pH [2, 10]: 4.0
- solubility ([2]; water with 1.1 equivalent of citric acid, pH 3.4, thermodynamic from solid, 1.1 equiv. of citric acid in water): 39.3 mg/mL
- solubility ([2]; water with 1.1 equivalent of fumaric acid, pH 4, thermodynamic from solid, 1.1 equivalent of fumaric acid in water): 1.1 mg/mL
- solubility at 24 h ([3]; 5% (w/w) SBECD solution, aqueous with cosolvent or surfactant or cyclodextrin, 5% (w/w) SBECD, RT, 24 hours, final pH 7.8, read-out: Solubility): 2610 µg/mL
- solubility at 24 h ([3]; 5% (w/w) SBECD solution, pH 7.8, aqueous with cosolvent or surfactant or cyclodextrin, 5% SBECD (54.23 mmol/L), read-out: API Solubility): 4.07 mM
- solubility at 24 h ([3]; 10% (w/w) SBECD solution, aqueous with cosolvent or surfactant or cyclodextrin, 10% (w/w) SBECD, RT, 24 hours, final pH 7.9, read-out: Solubility): 6470 µg/mL
- solubility at 24 h ([3]; 10% (w/w) SBECD solution, pH 7.9, aqueous with cosolvent or surfactant or cyclodextrin, 10% SBECD (108.46 mmol/L), read-out: API Solubility): 10.1 mM
- solubility at 24 h ([3]; 15% (w/w) SBECD solution, aqueous with cosolvent or surfactant or cyclodextrin, 15% (w/w) SBECD, RT, 24 hours, final pH 7.9, read-out: Solubility): 8810 µg/mL
- solubility at 24 h ([3]; 15% (w/w) SBECD solution, pH 7.9, aqueous with cosolvent or surfactant or cyclodextrin, 15% SBECD (162.70 mmol/L), read-out: API Solubility): 13.7 mM
- solubility at 24 h ([3]; 20% (w/w) SBECD solution, aqueous with cosolvent or surfactant or cyclodextrin, 20% (w/w) SBECD, RT, 24 hours, final pH 7.9, read-out: Solubility): 9350 µg/mL
- solubility at 24 h ([3]; 20% (w/w) SBECD solution, pH 7.9, aqueous with cosolvent or surfactant or cyclodextrin, 20% SBECD (216.93 mmol/L), read-out: API Solubility): 14.6 mM
- solubility at 24 h ([3]; 25% (w/w) SBECD solution, aqueous with cosolvent or surfactant or cyclodextrin, 25% (w/w) SBECD, RT, 24 hours, final pH 7.9, read-out: Solubility): 11000 µg/mL
- solubility at 24 h ([3]; 25% (w/w) SBECD solution, pH 7.9, aqueous with cosolvent or surfactant or cyclodextrin, 25% SBECD (271.16 mmol/L), read-out: API Solubility): 17.1 mM
- form change during solubility evaluation (XRPD) ([3]; SBECD solutions, 24 hours): No form change
- complexation stability constant K^1:1 ([3]; SBECD, Higuchi-Connors phase-solubility method): 3831 M⁻¹
- Concentration [4, 11]: 18.11 mg/mL
- End pH (24 hours) [4, 11]: 3.6
- Purity [4, 11]: 99.8 Area %
- Concentration [4, 12]: 26.45 mg/mL
- End pH (24 hours) [4, 12]: 5.1
- Purity [4, 12]: 99.8 Area %
- Concentration [4, 13]: 26.50 mg/mL
- End pH (24 hours) [4, 13]: 5.3
- Purity [4, 13]: 99.8 Area %
- degradation or form change (HPLC, XRPD) ([5]; 25° C./60% RH, 40° C./75% RH and 60° C. for 28 days): No significant degradation or form change
- FC (form change) ([5]; 25° C./60% RH, 28 days): N
- Purity ([5]; 25° C./60% RH, 28 days): 99.6 area %
- FC (form change) ([5]; 40° C./75% RH, 1 day): N
- Purity ([5]; 40° C./75% RH, 1 day): 99.69 area %
- FC (form change) ([5]; 40° C./75% RH, 3 days): N
- Purity ([5]; 40° C./75% RH, 3 days): 99.56 area %
- FC (form change) ([5]; 40° C./75% RH, 7 days): N
- Purity ([5]; 40° C./75% RH, 7 days): 99.59 area %
- FC (form change) ([5]; 40° C./75% RH, 14 days): N
- Purity ([5]; 40° C./75% RH, 14 days): 99.69 area %
- FC (form change) ([5]; 40° C./75% RH, 28 days): N
- Purity ([5]; 40° C./75% RH, 28 days): 99.73 area %
- FC (form change) ([5]; 60° C., 1 day): N
- Purity ([5]; 60° C., 1 day): 99.74 area %
- FC (form change) ([5]; 60° C., 3 days): N
- Purity ([5]; 60° C., 3 days): 99.57 area %
- FC (form change) ([5]; 60° C., 7 days): N
- Purity ([5]; 60° C., 7 days): 99.51 area %
- FC (form change) ([5]; 60° C., 14 days): N
- Purity ([5]; 60° C., 14 days): 99.62 area %
- FC (form change) ([5]; 60° C., 28 days): N
- Purity ([5]; 60° C., 28 days): 99.66 area %
- form change after exposure to different humidity levels (XRPD) [6]: no form change; also recorded: kinetically stable for at least 6 weeks
- degradation ([7]; 40 mg/mL in 100 mM citrate buffer, 5° C. and 25° C.): No significant degradation
- Appearance [7, 14]: yellow solution
- Assay [7, 14]: 68.4%
- Purity [7, 14]: 89.0 Area %
- pH [7, 14]: 4.7
- Appearance [7, 15]: cloudy and yellow
- Assay [7, 15]: 11.6%
- Purity [7, 15]: 78.9 Area %
- pH [7, 15]: 4.6
- Appearance [7, 16]: became cloudy
- Assay [7, 16]: 95.0%
- Purity [7, 16]: 99.7 Area %
- pH [7, 16]: 4.8
- Appearance [7, 17]: remained a clear solution
- Assay [7, 17]: 98.9%
- Purity [7, 17]: 99.5 Area %
- pH [7, 17]: 4.9
- Form ([8]; initial pH 4.0, RT): Low crystallinity*
- Form ([8]; initial pH 5.0, RT): Freeform Type D
- solubility at 24 h ([8]; initial pH 4.0, RT): 30.6 mg/mL (≈ 47.7 mM)
- solubility at 24 h ([8]; initial pH 5.0, RT): 1.29 mg/mL (≈ 2.01 mM)
- End pH (24 hours) ([8]; initial pH 4.0, RT): 5.2
- End pH (24 hours) ([8]; initial pH 5.0, RT): 5.2
- solid form after equilibrium (XRPD) ([8]; pH=4.0 citrate/phosphate): Low crystallinity sample
- solid form after equilibrium (XRPD) ([8]; pH=5.0 citrate/phosphate): no form change
